The target of data set [1] is Melanin-concentrating hormone receptor 1 (Homo sapiens, UniProt Q99705). Kind of data set: Displacement of radiolabeled iodo-MCH from human MCHR1 expressed in HEK293 cells. Type of data set: cell-based.
A short description of data set [2]: Stability in aqueous phosphate buffer at pH 7. It is filed as physicochemical.
Another data set has as its system Liver microsomes. Kind of data set: Intrinsic clearance in human liver microsome. It is filed as ADME. (Liver microsomes are vesicles of endoplasmic reticulum, rich in cytochrome P450 enzymes.)

In general, Ki refers to the dissociation constant of the complex between target and ligand, obtained from inhibition or displacement. Read a high Ki as weaker binding.

Chain of Melanin-concentrating hormone receptor 1 (Q99705 whole entry): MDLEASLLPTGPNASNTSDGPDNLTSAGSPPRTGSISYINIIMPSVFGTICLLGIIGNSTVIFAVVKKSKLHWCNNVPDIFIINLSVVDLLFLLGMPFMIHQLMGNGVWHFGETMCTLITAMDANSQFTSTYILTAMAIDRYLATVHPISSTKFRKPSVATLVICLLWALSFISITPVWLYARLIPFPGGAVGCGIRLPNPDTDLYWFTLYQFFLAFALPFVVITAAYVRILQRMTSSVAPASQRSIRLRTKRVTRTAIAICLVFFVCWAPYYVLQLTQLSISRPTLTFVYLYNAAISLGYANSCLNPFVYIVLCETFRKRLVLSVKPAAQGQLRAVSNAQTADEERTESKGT

`COc1cc(NC(=O)c2ccc(C3CCCCC3)cc2)ccc1OC1CCN(C)C1` (centres undefined) gave a Ki in data set [1] of 63.1 nM.

For the compound `COc1cc(-n2cnc3sc(-c4ccccc4)cc3c2=O)ccc1OCCN1CCCC1`, the Ki in data set [1] is 794 nM.

As for `COc1cc(NC(=O)c2ccc(C3CCCCC3)cc2)ccc1OC[C@@H]1CCCN1C`, in data set [1], the Ki is 39.8 nM.

In the case of `COc1cc(-n2cnc3cc(-c4ccccc4)sc3c2=O)ccc1OCCN1CCCC1`, in data set [1], the affinity, expressed as Ki, was 20 nM. Also, the Stability result in data set [2] was “Stable”.

Turning to `COc1cc(-n2nnc3cc(-c4ccccc4)ccc3c2=O)ccc1OCCN1CCCC1`, in data set [1], the Ki was 25.1 nM. In the data set on Liver microsomes, this compound yielded a CL of less than 1.5 mL/min/g. Besides, in data set [2], the Stability result is “Stable”.

With `CC(C)N(CCOc1ccc(N(C)C(=O)c2ccc3c(c2)CCc2ccccc2-3)cc1)C(C)C`, the affinity in data set [1], expressed as Ki, was 316 nM.

Regarding `O=C(Nc1ccc(OCCN2CCCC2)cc1)c1ccc2c(c1)Cc1ccccc1-2`, in data set [1], the affinity, expressed as Ki, was 501 nM.

`COc1cc(-n2cnc3ccc(-c4ccc(Cl)cc4)cc3c2=O)ccc1OCCN1CCCC1` had a Ki in data set [1] of 1000 nM.

Compound `COc1cc(NC(=O)c2ccc(C3CCCCC3)cc2)ccc1O[C@H]1CCCC[C@@H]1N(C)C` showed a Ki in data set [1] of 2510 nM.

For `COc1cc(N2C(=O)c3ccc(Nc4ccccc4)cc3C2=O)ccc1OCCN1CCCC1`, the Ki in data set [1] is 15.8 nM. In data set [2], the Activity entry is “Not Active”.

In data set [1], `COc1cc(NC(=O)c2ccc(C3CCCCC3)cc2)ccc1OC[C@H]1CCCN1C` gave an inhibitory constant (Ki) of 79.4 nM.

In data set [1], `COc1cc(N(C)C(=O)c2ccc3oc4ccccc4c3c2)ccc1OCCN(C(C)C)C(C)C` had an inhibition constant (Ki) of 2000 nM.

The compound `COc1cc(N2C(=O)c3ccc(-c4ccccc4)cc3C2=O)ccc1OCCN(C(C)C)C(C)C` had a Ki in data set [1] of 126 nM.

`COc1cc(-n2cnc3cc(-c4ccccc4)ccc3c2=O)ccc1OCCN1CCCC1`: in data set [1], the affinity, expressed as Ki, was 20 nM. Besides, the CL in the data set on Liver microsomes was less than 1.5 mL/min/g. Besides, in data set [2], the Stability entry is reported as “Stable”.

In data set [1], `O=C(Nc1ccc(OCCN2CCCC2)cc1)c1ccc2c(c1)CCc1ccccc1-2` gave a Ki of 1000 nM.

Consider `COc1cc(-n2nnc3ccc(Oc4ccccc4)cc3c2=O)ccc1OCCN1CCCC1`, for which, in data set [1], the affinity corresponds to a Ki of 39.8 nM. This Ki is about 25-fold lower than that of the compound before.

`COc1cc(-n2cnc3cc(Oc4ccccc4)ccc3c2=O)ccc1OCCN1CCCC1` had a Ki in data set [1] of 50.1 nM.

In the case of `CCN1CCN(c2ccc(NC(=O)c3ccc(C4CCCCC4)cc3)cc2OC)CC1`, the affinity in data set [1] corresponds to a Ki of 79.4 nM.

`CC(C)N(CCOc1ccc(NC(=O)c2ccc3c(c2)C(=O)c2ccccc2-3)cc1)C(C)C` gave a Ki in data set [1] of 200 nM.

Turning to `COc1cc(NC(=O)c2ccc(C3CCCCC3)cc2)ccc1OC12CCCN(CC1)C2` (centres undefined), affinity in data set [1] was put at a Ki of 50.1 nM. This Ki lies about 4-fold lower than the previous one.

Turning to `COc1cc(N2C(=O)c3ccc(Oc4ccccc4)cc3C2=O)ccc1OCCN1CCCC1`, in data set [2], the Activity result is given as “Not Active”.

With `COc1cc(-n2cnc3ccc(Oc4ccccc4)cc3c2=O)ccc1OCCN1CCCC1`, the Ki in data set [1] is 316 nM.

Compound `O=C(Nc1ccc(OCCN2CCCC2)cc1)c1ccc2oc3ccccc3c2c1` had a Ki in data set [1] of 2510 nM.

On to `CC(C)N(CCOc1ccc(N(C)C(=O)c2ccc3c(c2)Cc2ccccc2-3)cc1)C(C)C`, for which the affinity in data set [1] corresponds to a Ki of 398 nM.

The compound `COc1cc(N2Cc3ccc(-c4ccccc4)cc3C2=O)ccc1OCCN(C(C)C)C(C)C` showed a Ki in data set [1] of 398 nM.

In the case of `COc1cc(N2C(=O)c3ccc(Sc4ccccc4)cc3C2=O)ccc1OCCN1CCCC1`, the Ki in data set [1] is 31.6 nM. Further, the Activity result in data set [2] was “Not Active”.

Consider `COc1cc(-n2nnc3cc(Oc4ccccc4)ccc3c2=O)ccc1OCCN1CCCC1`, for which the inhibitory constant (Ki) in data set [1] was 79.4 nM.
